Assay results from patent publication US10525073B2, “Method for improving kidney and/or heart function in patients with kidney disease” (MacKay Memorial Hospital, priority 2015, dated 2020).

Columns and labels:
CKD rats [1] = assay: Cardiac muscle strain measurement by heart ultrasound in CKD rats; assay type: in vivo, Sprague Dawley rats; conditions: vs control animals
Procedure: SD rats (about 10 weeks old) scheduled to undergo 5/6 nephrectomy or sham surgery were anesthetized by Zoletil 50/Xylazine (6 mg/1.3 mg/Kg, i.p.). Then, the left kidney was exposed, and the upper and lower poles were tied with a suture line, followed by right nephrectomy. The peritoneum and skin were then sutured, and the animals were returned to their individual cages. For animals underwent sham surgery, the left kidney was exposed in similar manner, but was then placed back into the abdominal cavity without further treatment, peritoneum and skin were then sutured. Two weeks after sham or 5/6 nephrectomy surgery, the animals were subjected to a 24-hour urine collection and non-invasive tail blood pressure measurement every 4 weeks. […] Once the animal became unconscious, it was then connected to heart ultrasound machine (Vivid i, General Electric Company, US) and heart function paraments including changes in diastolic parameter-Tissue Velocity Imaging (TVI_V) and E/A ratio, the strain in cardia muscle (C_strain), and left ventrical mass ([…]) were respectively measured. […] Blood and urine samples were respectively collected on designated days and analyzed for the levels of blood urine nitrogen (BUN), serum creatine (CR), and hepatic enzymes (i.e., alanine aminotransferase (ALT) and aspartate aminotransferase (AST)). […]

[2] = system: IL-6 and COL-1-A1 in heart tissue of CKD rats; assay: Western blot of IL-6 and COL-1-A1 in heart tissue of CKD rats; assay type: in vivo, Sprague Dawley rats
Procedure: (§1) SD rats (about 10 weeks old) scheduled to undergo 5/6 nephrectomy or sham surgery were anesthetized by Zoletil 50/Xylazine (6 mg/1.3 mg/Kg, i.p.). Then, the left kidney was exposed, and the upper and lower poles were tied with a suture line, followed by right nephrectomy. The peritoneum and skin were then sutured, and the animals were returned to their individual cages. […] Two weeks after sham or 5/6 nephrectomy surgery, the animals were subjected to a 24-hour urine collection and non-invasive tail blood pressure measurement every 4 weeks. […]
(§2) 5/6 nephrectomy is a procedure in which one kidney of a test animal is removed and 2/3 of the remaining kidney is ablated, thereby mimics the progressive renal failure after loss of renal mass in humans. […] Blood and urine samples were respectively collected on designated days and analyzed for the levels of blood urine nitrogen (BUN), serum creatine (CR), and hepatic enzymes (i.e., alanine aminotransferase (ALT) and aspartate aminotransferase (AST)). Heart function was determined by monitoring the changes in diastolic parameter—Tissue Velocity Imaging (TVI_V), E/A ratio, and the strain in cardia muscle (C_strain), left ventrical mass (LVMASS). […]

CKD rats [3] = assay: Uremic toxins (indoxyl sulfate, P-cresyl sulfate) in serum of CKD rats; assay type: in vivo, Sprague Dawley rats; conditions: serum collected from CKD rats
Procedure: (§3) SD rats (about 10 weeks old) scheduled to undergo 5/6 nephrectomy or sham surgery were anesthetized by Zoletil 50/Xylazine (6 mg/1.3 mg/Kg, i.p.). Then, the left kidney was exposed, and the upper and lower poles were tied with a suture line, followed by right nephrectomy. The peritoneum and skin were then sutured, and the animals were returned to their individual cages. […] Two weeks after sham or 5/6 nephrectomy surgery, the animals were subjected to a 24-hour urine collection and non-invasive tail blood pressure measurement every 4 weeks. Four weeks after the surgery, rats underwent 5/6 nephrectomy or shame surgery were randomly assigned into two groups, i.e., the control and the telbivudine groups, in which the control group received saline treatment, and rats in the telbivudine group received telbivudine (10 mg/mL/Kg) treatment for 8 or 12 weeks. Animals were then sacrificed, and kidney and heart biopsy samples were obtained.
(§4) 5/6 nephrectomy is a procedure in which one kidney of a test animal is removed and 2/3 of the remaining kidney is ablated, thereby mimics the progressive renal failure after loss of renal mass in humans. Briefly, approximately 50% of the remaining kidney of the rat was removed by polar excision 1-2 weeks after uni-nephrectomy. Then, the animals were randomly assigned to two groups, the telbivudine group and the control group. Rats in the telbivudine group were orally fed with telbivudine (at a dosage of 100 mg/Kg) for 4, 8 or 12 weeks, while the animals in the control group were given just the water. Blood and urine samples were respectively collected on designated days and analyzed for the levels of blood urine nitrogen (BUN), serum creatine (CR), and hepatic enzymes (i.e., alanine aminotransferase (ALT) and aspartate aminotransferase (AST)). Heart function was determined by monitoring the changes in diastolic parameter—Tissue Velocity Imaging (TVI_V), E/A ratio, and the strain in cardia muscle (C_strain), left ventrical mass (LVMASS). Animals were sacrificed after the experiments were finished, and kidney biopsy samples were obtained.
Indoxyl sulfate (IS) and P-cresyl sulfate (PCS) are uremic toxins that accumulate in the serum of CKD patients, and are known factors for causing heart problems in the CKD subjects.

[4] = system: IL-6, TGF-β, TIMP1 and COL-1-A1 in kidney tissue of CKD rats; assay: Quantitative RT-PCR of inflammatory genes in kidney tissue of CKD rats; assay type: in vivo, Sprague Dawley rats
Procedure: as §3
Total RNA was extracted from fresh frozen renal and heart tissues using the Trizol Reagent (Life Technologies), according to the manufacturer protocol. Briefly, renal cortex or heart tissue (150 mg) was homogenized with 1 ml Trizol, and RNA-containing aqueous phase was obtained by centrifugation. Following the precipitation of RNA by centrifugation with 0.5 volume isopropanol and purification with 75% ethanol, the extracted total RNA was dissolved in 80 μL nuclease-free deionized distilled water and stored at −20° C. The concentration and purity of RNA were determined by Nanodrop Spectrophotometer (Thermo Scientific). First-strand cDNAs were synthesized from template RNA (1 μg) using Transcriptor First Strand cDNA Synthesis Kit (Roche), according to the manufacturer's protocol. Real-time PCR was performed using 2 μL template in a 20-μL reaction containing 1 μM of each primer and 10 μLLightCyclerFastStartUniversal SYBR Green Master (ROX) (Roche). […]
as §2

CKD rats [5] = assay: Heart fibrosis in CKD rats; assay type: in vivo, Sprague Dawley rats; conditions: heart tissue of CKD rats, telbivudine-treated vs untreated (FIG. 5)
Procedure: as §1, §2

CKD rats [6] = assay: Blood urine nitrogen (BUN) and serum creatine (CR) levels in 5/6 nephrectomy CKD rats; assay type: in vivo, Sprague Dawley rats; conditions: 5/6 nephrectomy rats
Procedure: Sprague Dawley rats (7 weeks old) were kept in pathogen-free environment under 12:12 light-dark cycle with food and water provided ad libitum, ambient temperature and relative humidity were respectively set at 24±2° C. and 50±20%. All procedures involving animal studies of the present disclosure comply with the “Guideline for the Care and Use of Laboratory Animals” issued by The Chinese-Taipei Society of Laboratory Animal Sciences. SD rats (about 10 weeks old) scheduled to undergo 5/6 nephrectomy or sham surgery were anesthetized by Zoletil 50/Xylazine (6 mg/1.3 mg/Kg, i.p.). Then, the left kidney was exposed, and the upper and lower poles were tied with a suture line, followed by right nephrectomy. The peritoneum and skin were then sutured, and the animals were returned to their individual cages. For animals underwent sham surgery, the left kidney was exposed in similar manner, but was then placed back into the abdominal cavity without further treatment, peritoneum and skin were then sutured. Two weeks after sham or 5/6 nephrectomy surgery, the animals were subjected to a 24-hour urine collection and non-invasive tail blood pressure measurement every 4 weeks. Four weeks after the surgery, rats underwent 5/6 nephrectomy or shame surgery were randomly assigned into two groups, i.e., the control and the telbivudine groups, in which the control group received saline treatment, and rats in the telbivudine group received telbivudine (10 mg/mL/Kg) treatment for 8 or 12 weeks. Animals were then sacrificed, and kidney and heart biopsy samples were obtained. In this example, to evaluate the therapeutic function of telbivudine, animals were first subject to 5/6 nephrectomy to induce in vivo kidney failure before being treated with telbivudine. 5/6 nephrectomy is a procedure in which one kidney of a test animal is removed and 2/3 of the remaining kidney is ablated, thereby mimics the progressive renal failure after loss of renal mass in humans. Briefly, approximately 50% of the remaining kidney of the rat was removed by polar excision 1-2 weeks after uni-nephrectomy. Then, the animals were randomly assigned to two groups, the telbivudine group and the control group. […] Blood and urine samples were respectively collected on designated days and analyzed for the levels of blood urine nitrogen (BUN), serum creatine (CR), and hepatic enzymes (i.e., alanine aminotransferase (ALT) and aspartate aminotransferase (AST)). Heart function was determined by monitoring the changes in diastolic parameter-Tissue Velocity Imaging ([…] ratio, and the strain in cardia muscle (C_strain), left ventrical mass ([…]). Animals were sacrificed after the experiments were finished, and kidney biopsy samples were obtained.

[7] = system: IL-6 and COL-1-A1 in heart tissue of CKD rats; assay: Quantitative RT-PCR of IL-6 and COL-1-A1 in heart tissue of CKD rats; assay type: in vivo, Sprague Dawley rats
Procedure: as §1
Total RNA was extracted from fresh frozen renal and heart tissues using the Trizol Reagent (Life Technologies), according to the manufacturer protocol. […] The concentration and purity of RNA were determined by Nanodrop Spectrophotometer (Thermo Scientific). […]
as §2, with “(AST)).” for “(AST)). Heart function was determined by monitoring the changes in diastolic parameter—Tissue Velocity Imaging (TVI_V), E/A ratio, and the strain in cardia muscle (C_strain), left ventrical mass (LVMASS).”

[8] = system: IL-6, TGF-β, TIMP1 and COL-1-A1 in kidney tissue of CKD rats; assay: Western blot of inflammatory proteins in kidney tissue of CKD rats; assay type: in vivo, Sprague Dawley rats
Procedure: as §3
For protein identification, 30 μg nuclear extracted protein was loaded in each lane of the SDS-PAGE gel (8%) and separated by electrophoresis. The separated proteins were then electro-transferred to polyvinylidene fluoride (PVDF) membranes (GE Healthcare Bio-Sciences, Little Chalfont, UK), and blocked with 5% fat-free skim milk in TRIS-buffered saline containing 0.01% Tween-20 for 60 min at room temperature. The membrane was then incubated with rabbit polyclonalanti-IL-6, TGF-β, TIMP-1 and COL1-1 (diluted 1:1000 in PBS/5% skim milk; Novus. Biologicals) antibodies overnight at 4, respectively. HRP conjugated anti-rabbit IgG (Promega) was then used as secondary antibody. Immunoreactive protein was visualized by the chemiluminescence protocol (ECL, GE HealthcareBio-Sciences). Anti-actin rabbit polyclonal antibody (1:1000; Sigma-Aldrich) was used for calibration.
as §4, with “Rats in the telbivudine group were orally fed with telbivudine (at a dosage of 100 mg/Kg) for 4, 8 or 12 weeks, while the animals in the control group were given just the water.” left out, “Animals were sacrificed after the experiments were finished, and kidney biopsy samples were obtained.” left out

CKD rats [9] = assay: Kidney fibrosis in kidney samples of CKD rats; assay type: in vivo, Sprague Dawley rats
Procedure: Sprague Dawley rats (7 weeks old) were kept in pathogen-free environment under 12:12 light-dark cycle with food and water provided ad libitum, ambient temperature and relative humidity were respectively set at 24±2° C. and 50±20%. All procedures involving animal studies of the present disclosure comply with the “Guideline for the Care and Use of Laboratory Animals” issued by The Chinese-Taipei Society of Laboratory Animal Sciences. SD rats (about 10 weeks old) scheduled to undergo 5/6 nephrectomy or sham surgery were anesthetized by Zoletil 50/Xylazine (6 mg/1.3 mg/Kg, i.p.). Then, the left kidney was exposed, and the upper and lower poles were tied with a suture line, followed by right nephrectomy. The peritoneum and skin were then sutured, and the animals were returned to their individual cages. For animals underwent sham surgery, the left kidney was exposed in similar manner, but was then placed back into the abdominal cavity without further treatment, peritoneum and skin were then sutured. Two weeks after sham or 5/6 nephrectomy surgery, the animals were subjected to a 24-hour urine collection and non-invasive tail blood pressure measurement every 4 weeks. Four weeks after the surgery, rats underwent 5/6 nephrectomy or shame surgery were randomly assigned into two groups, i.e., the control and the telbivudine groups, in which the control group received saline treatment, and rats in the telbivudine group received telbivudine (10 mg/mL/Kg) treatment for 8 or 12 weeks. […] Blood and urine samples were respectively collected on designated days and analyzed for the levels of blood urine nitrogen (BUN), serum creatine (CR), and hepatic enzymes (i.e., alanine aminotransferase (ALT) and aspartate aminotransferase (AST)). Heart function was determined by monitoring the changes in diastolic parameter-Tissue Velocity Imaging ([…] ratio, and the strain in cardia muscle (C_strain), left ventrical mass ([…]). Animals were sacrificed after the experiments were finished, and kidney biopsy samples were obtained.

CKD rats [10] = system: CKD rats; parameters: species or system Sprague Dawley rats; conditions: rat, in vivo
Source text: as §4
In this example, the effect of telbivudine on liver function was investigated.

[11] = telbivudine orally 100 mg/Kg for 8 weeks, vs untreated CKD
[12] = telbivudine orally 100 mg/Kg for 12 weeks

Structure (SMILES): Cc1cn([C@@H]2C[C@@H](O)[C@H](CO)O2)c(=O)[nH]c1=O [telbivudine]
- C-strain values (strain in cardia muscle) (CKD rats [1]; CKD animals treated with telbivudine for 8 weeks): significant improvement
- C-strain values (strain in cardia muscle) (CKD rats [1]; CKD animals treated with telbivudine for 12 weeks): significant improvement
- protein level of COL-1-A1 [2]: markedly reduced
- protein level of IL-6 [2]: markedly reduced
- free level of Indoxyl sulfate (IS) (CKD rats [3]): effectively reduced
- free level of P-cresyl sulfate (PCS) (CKD rats [3]): effectively reduced
- total level of Indoxyl sulfate (IS) (CKD rats [3]): effectively reduced
- total level of P-cresyl sulfate (PCS) (CKD rats [3]): effectively reduced
- mRNA level of COL-1-A1 [4]: reduced
- mRNA level of IL-6 [4]: reduced
- mRNA level of TGF-β [4]: reduced
- mRNA level of TIMP1 [4]: reduced
- extent of fibrotic tissues in heart (CKD rats [5]): markedly reduced
- level of BUN (blood urine nitrogen) (CKD rats [6]; [11]): significant reduction
- level of CR (serum creatine) (CKD rats [6]; [11]): significant reduction
- level of BUN (blood urine nitrogen) (CKD rats [6]; [12]): most significant
- level of CR (serum creatine) (CKD rats [6]; [12]): most significant
- mRNA level of COL-1-A1 [7]: markedly reduced
- mRNA level of IL-6 [7]: markedly reduced
- protein level of COL-1-A1 [8]: reduced
- protein level of IL-6 [8]: reduced
- protein level of TGF-β [8]: reduced
- protein level of TIMP1 [8]: reduced
- decrease of extent of kidney fibrosis (CKD rats [9]; telbivudine treatment for 8 weeks (FIG. 2 panel D)): about 62.4%
- decrease of extent of kidney fibrosis (CKD rats [9]; telbivudine treatment for 12 weeks (FIG. 2 panel D)): ~79.2%
- extent of kidney fibrosis (photographs) (CKD rats [9]; telbivudine-treated vs untreated (FIG. 2 panel B vs C)): significantly reduced
- level of alanine aminotransferase (ALT) (CKD rats [10]): remained relatively the same
- level of aspartate aminotransferase (AST) (CKD rats [10]): remained relatively the same
- toxic effects toward liver function (CKD rats [10]): does not possess any toxic effects
